Experimental data as given in patent publication US8361968B2 (Takeda Pharmaceutical Company Limited, priority 2002, dated 2013).
Like-named read-outs stand apart in the source and are kept apart here. Numbered stars: 1 amine (or outer) side, 2 acyl side, 3 side chain; on linkers, the order of the positions; unused ones are H or OH. Square brackets hold non-standard residues; d marks the D form. Peptide text beside a SMILES is read from it. X11 = O=C(CNC(=S)[C@H](Cc1ccccc1)N[*:1])[*:2]; Arg(Me) = CNC(=N)NCCC[C@H](N)C(=O)O; 4Pal = N[C@@H](Cc1ccncc1)C(=O)O; azaGly = NNC(=O)O

Legend:
[1] = in vitro; conditions: female, Balb/c, mouse, serum
Procedure: (§1) Blood was drawn from Balb/c mice (female) of 8 weeks old, settled at 37° C. for 30 minutes and centrifuged at 13000 rpm for 10 minutes to give the serum as the supernatant. The serum thus obtained was frozen-stored at −80° C.
(§2) The stability test was performed by addition of 5 nmol of Compound (5 μL of aqueous solution) to 45 μL of serum and then settlement of the mixture at 37° C. The settlement was made at 3 points of time, including 2, 10 and 30 minutes. The sample after the settlement was boiled for 3 minutes and cooled on an ice bath. After 200 μL of acetonitrile/water (3/1) was added to the sample, the mixture was ultrasonicated for 5 minutes and then centrifuged at 5000 rpm for 1 minute. After 150 μL of the supernatant was diluted with 250 μL of distilled water, insoluble matters were removed by filtration through a filter having a pore size of 0.45 μm and 200 μL of the filtrate was applied on HPLC (220 nm) to determine the peak area of Compound. A ratio of the peak area to the area when Compound was treated for 0 minute under the same conditions was calculated as a mean value in 4 respective runs to determine the residual ratio. Next, by taking the calculated residual ratio on the ordinate and the time on the abscissa, a graph was prepared and approximated by an exponential function.
(§3) The preparative HPLC used was the LC-VP series manufactured by Shimadzu Corporation and Wakosil-II 5C18 HG (4.6 mm×100 mm) manufactured by Wako Pure Chemical Industries, Ltd. was used as the column. Eluant A (0.1% TFA-containing water) and eluant B (0.1% TFA-containing acetonitrile) were used as eluants. Analysis was performed by linear density gradient elution (25 minutes) at a flow rate of 1.0 ml/min. using eluants A/B: 100/0-0/50.

[2] = system: hOT7T175-expressed CHO cells; format: cell-based
Procedure: Assay for Cell Growth Inhibition Activity in hOT7T175-Expressed Cho Cells hOT7T175-Expressed CHO cells (hereinafter hOT7T175) were cultured in DMEM supplemented with 10% dialyzed FBS (hereinafter 10% dFBS/DMEM), which was used for the following assay. The hOT7T175 was suspended in 10% dFBS/DMEM at 10,000 cells/ml. The cells were plated on a 96 well plate at 100 μL each/well (1,000 cells/well), followed by culturing overnight at 37° C. in a 5% CO2 incubator. On the following day, the medium was removed and 90 μL of 10% dFBS/DMEM supplemented with 0.5% BSA (hereinafter, 0.5% BSA/10% dFBS/DMEM) was added. […] After 10 μL of Cell Counting Kit-8 solution (Dojin Chemical Laboratory) was added to each well, incubation was performed at 37° C. in a 5% CO2 incubator for 4 hours and absorbance was measured at 450 nm.

[3] = target: T1, hOT7T175 (Homo sapiens, UniProt Q969F8, L364H); assay: hOT7T175 receptor binding activity: binding inhibition of Cy-5-labeled metastin (40-54) on hOT7T175-expressed CHO cells; design: expressed in transfected cells; host or cells: CHO cells
T1 sequence (Q969F8 whole entry L364H): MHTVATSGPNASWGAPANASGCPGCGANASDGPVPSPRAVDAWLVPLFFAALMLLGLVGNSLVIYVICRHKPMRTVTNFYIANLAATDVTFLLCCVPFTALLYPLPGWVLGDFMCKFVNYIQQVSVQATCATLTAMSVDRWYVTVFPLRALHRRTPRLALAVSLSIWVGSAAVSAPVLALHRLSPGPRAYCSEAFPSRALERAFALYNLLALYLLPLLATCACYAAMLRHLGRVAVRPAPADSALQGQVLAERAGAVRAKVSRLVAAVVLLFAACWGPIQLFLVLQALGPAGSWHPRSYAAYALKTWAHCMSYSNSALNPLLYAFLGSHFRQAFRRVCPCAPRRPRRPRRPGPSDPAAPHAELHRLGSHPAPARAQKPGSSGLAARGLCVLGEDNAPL

[4] = target: T1, hOT7T175; assay: Intracellular Ca ion level-increasing activity using FLIPR in hOT7T175/CHO; format: cell-based; design: expressed in transfected cells; host or cells: CHO/dhfr- cells, obtained from ATCC; conditions: relative, Metastin (1-54) = 1
[5] = Stability of compound in blood (mouse serum, half life); conditions: female, Balb/c
Procedure: as §1, §2, §3

[6] = hOT7T175-expressed CHO cells, 3 days culture, Cell Counting Kit-8, read-out: IC50 (M), cell growth inhibition activity

For `CC[C@H](C)[C@H](NC(=O)[C@H](CCC(N)=O)NC(=O)[C@H](CCCNC(=N)N)NC(=O)[C@H](CO)NC(=O)[C@H](Cc1c[nH]cn1)NC(=O)[C@@H]1CCCN1C(=O)[C@H](C)NC(=O)[C@H](CO)NC(=O)[C@H](CC(C)C)NC(=O)CNC(=O)[C@@H]1CCCN1C(=O)[C@H](CCC(N)=O)NC(=O)[C@H](CCC(N)=O)NC(=O)[C@H](CCCNC(=N)N)NC(=O)[C@H](CO)NC(=O)CNC(=O)[C@H](CO)NC(=O)[C@H](CO)NC(=O)[C@H](CCC(=O)O)NC(=O)[C@@H]1CCCN1C(=O)[C@@H]1CCCN1C(=O)[C@@H]1CCCN1C(=O)[C@H](CO)NC(=O)[C@H](CC(C)C)NC(=O)[C@H](CO)NC(=O)[C@@H](NC(=O)CN)[C@@H](C)O)C(=O)N1CCC[C@H]1C(=O)N[C@@H](C)C(=O)N1CCC[C@H]1C(=O)N[C@@H](CCC(N)=O)C(=O)NCC(=O)N[C@@H](C)C(=O)N[C@H](C(=O)N[C@@H](CC(C)C)C(=O)N[C@H](C(=O)N[C@@H](CCC(N)=O)C(=O)N[C@@H](CCCNC(=N)N)C(=O)N[C@@H](CCC(=O)O)C(=O)N[C@@H](CCCCN)C(=O)N[C@@H](CC(=O)O)C(=O)N[C@@H](CC(C)C)C(=O)N1CCC[C@H]1C(=O)N[C@@H](CC(N)=O)C(=O)N[C@@H](Cc1ccc(O)cc1)C(=O)N[C@@H](CC(N)=O)C(=O)N[C@@H](Cc1c[nH]c2ccccc12)C(=O)N[C@@H](CC(N)=O)C(=O)N[C@@H](CO)C(=O)N[C@@H](Cc1ccccc1)C(=O)NCC(=O)N[C@@H](CC(C)C)C(=O)N[C@@H](CCCNC(=N)N)C(=O)N[C@@H](Cc1ccccc1)C(N)=O)C(C)C)C(C)C` [Compound No. 1, Metastin, reference compound], which half-life at 100 µM [1] is on record?
Its half-life at 100 µM is 22.5 min.

For `CC(C)C[C@H](NC(=O)CNC(=O)[C@H](Cc1ccccc1)NC(=O)[C@H](CO)NC(=O)[C@H](CC(N)=O)NC(=O)[C@H](Cc1c[nH]c2ccccc12)NC(=O)[C@H](CC(N)=O)NC(=O)[C@@H](N)Cc1ccc(O)cc1)C(=O)N[C@@H](CCCNC(=N)N)C(=O)N[C@@H](Cc1ccccc1)C(N)=O` [45-54], which IC50 [2, 6] is on record?
Its IC50 is 8.51e-06 M.

What does the source list for `CNC(N)=NCCC[C@H](NC(=O)[C@H](CC(C)C)NC(=O)NNC(=O)[C@H](Cc1ccccc1)NC(=O)[C@H](CO)NC(=O)[C@H](CC(N)=O)NC(=O)[C@H](Cc1ccncc1)NC(=O)[C@H](CC(N)=O)NC(=O)[C@H](N)Cc1ccc(O)cc1)C(=O)N[C@@H](Cc1ccccc1)C(N)=O` [Compound No. 286, D-Tyr-Asn-Pya(4)-Asn-Ser-Phe-AzaGly-Leu-Arg(Me)-Phe-NH2] (H-[dY]N[4Pal]NSF[azaGly]L[Arg(Me)]F-NH2)?
IC50 [3]: 17 nM; half-life at 100 µM [1]: 57.5 min

For `CNC(N)=NCCC[C@H](NC(=O)[C@H](CC(C)C)NC(=O)CNC(=S)[C@H](Cc1ccccc1)NC(=O)[C@H](CO)NC(=O)[C@H](CC(N)=O)NC(=O)[C@H](Cc1c[nH]c2ccccc12)NC(=O)[C@H](CC(N)=O)NC(=O)[C@H](N)Cc1ccc(O)cc1)C(=O)N[C@@H](Cc1ccccc1)C(N)=O` [Compound No. 296, D-Tyr-Asn-Trp-Asn-Ser-PheΨ(CSNH)Gly-Leu-Arg(Me)-Phe-NH2] (H-[dY]NWNS[X11]L[Arg(Me)]F-NH2), which half-life at 100 µM [1] is on record?
The half-life at 100 µM was 47.2 min.

What does the source list for `CC(C)C[C@H](NC(=O)CNC(=O)[C@H](Cc1ccccc1)NC(=O)[C@H](CO)NC(=O)[C@H](CC(N)=O)NC(=O)[C@H](Cc1c[nH]c2ccccc12)NC(=O)[C@H](CC(N)=O)NC(=O)[C@@H](N)Cc1ccc(O)cc1)C(=O)N[C@@H](CCCNC(=N)N)C(=O)N[C@@H](Cc1ccccc1)C(N)=O` [Compound No. 3, reference compound]?
Specific Activity (intracellular Ca ion level-increasing activity) [4]: 10; half-life at 100 µM [5]: 0.6 min

With `CNC(=N)NCCC[C@H](NC(=O)[C@H](CC(C)C)NC(=O)CC(=O)N[C@H](Cc1ccccc1)NC(=O)[C@H](CO)NC(=O)[C@H](CC(N)=O)NC(=O)[C@H](Cc1c[nH]c2ccccc12)NC(=O)[C@H](CC(N)=O)NC(=O)[C@H](N)Cc1ccc(O)cc1)C(=O)N[C@@H](Cc1ccccc1)C(N)=O` [Compound No. 319, D-Tyr-Asn-Trp-Asn-Ser-PheΨ(NHCO)Gly-Leu-Arg(Me)-Phe-NH2] as the molecule, how does the “Specific Activity (intracellular Ca ion level-increasing activity)” value [4] read?
Its value is 3.

And the half-life at 100 µM [5]?
The half-life at 100 µM was 33 min.

For `CNC(=N)NCCC[C@H](NC(=O)[C@H](CC(C)C)NC(=O)CNC(=O)[C@H](Cc1ccccc1)NC(=O)[C@H](CO)NC(=O)[C@H](CC(N)=O)NC(=O)[C@H](Cc1c[nH]c2ccccc12)NC(=O)[C@H](CC(N)=O)NC(=O)[C@H](N)Cc1ccc(O)cc1)C(=O)N[C@@H](Cc1ccccc1)C(N)=O` [Compound No. 141], which IC50 [2] is on record?
The IC50 was 8.7e-08 M.

What about the “Specific Activity (intracellular Ca ion level-increasing activity)” value [4] of the same molecule?
The value was 10.

What about the half-life at 100 µM [1] of the same molecule?
Its half-life at 100 µM is 8.7 min.

For `CNC(=N)NCCC[C@H](NC(=O)[C@H](CC(C)C)NC(=O)NNC(=O)[C@H](Cc1ccccc1)NC(=O)[C@H](CO)NC(=O)[C@H](CC(N)=O)NC(=O)[C@H](Cc1c[nH]c2ccccc12)NC(=O)[C@H](CC(N)=O)NC(=O)[C@H](N)Cc1ccc(O)cc1)C(=O)N[C@@H](Cc1ccccc1)C(N)=O` [Compound No. 232, D-Tyr-Asn-Trp-Asn-Ser-Phe-AzaGly-Leu-Arg(Me)-Phe-NH2], which IC50 [2] is on record?
The IC50 was 9.67e-09 M.

What about the “Specific Activity (intracellular Ca ion level-increasing activity)” value [4] of the same molecule?
Its value is 3.

What about the IC50 [3] of the same molecule?
The IC50 was 49 nM.

What about the half-life at 100 µM [1] of the same molecule?
Its half-life at 100 µM is 28.2 min.

What does the source list for `CNC(=N)NCCC[C@H](NC(=O)[C@H](CC(C)C)NC(=O)NNC(=O)[C@H](Cc1ccccc1)NC(=O)[C@H](CO)NC(=O)[C@H](CC(N)=O)NC(=O)[C@H](Cc1ccncc1)NC(=O)[C@H](CC(N)=O)NC(=O)[C@H](N)Cc1ccc(O)cc1)C(=O)N[C@@H](Cc1ccccc1)C(N)=O` [Compound No. 286, D-Tyr-Asn-Pya(4)-Asn-Ser-Phe-AzaGly-Leu-Arg(Me)-Phe-NH2] (H-[dY]N[4Pal]NSF[azaGly]L[Arg(Me)]F-NH2)?
IC50 [2, 6]: 1.83e-08 M; Specific Activity (intracellular Ca ion level-increasing activity) [4]: 2

Which “Specific Activity (intracellular Ca ion level-increasing activity)” value [4] does the source give for `CNC(=N)NCCC[C@H](NC(=O)[C@H](CC(C)C)NC(=O)CNC[C@H](Cc1ccccc1)NC(=O)[C@H](CO)NC(=O)[C@H](CC(N)=O)NC(=O)[C@H](Cc1c[nH]c2ccccc12)NC(=O)[C@H](CC(N)=O)NC(=O)[C@H](N)Cc1ccc(O)cc1)C(=O)N[C@@H](Cc1ccccc1)C(N)=O` [Compound No. 308, D-Tyr-Asn-Trp-Asn-Ser-PheΨ(CH2NH)Gly-Leu-Arg(Me)-Phe-NH2] here?
The value was 2.

And the half-life at 100 µM [1]?
The half-life at 100 µM was 13.2 min.

With `CC[C@H](C)[C@H](NC(=O)[C@H](CCC(N)=O)NC(=O)[C@H](CCCNC(=N)N)NC(=O)[C@H](CO)NC(=O)[C@H](Cc1c[nH]cn1)NC(=O)[C@@H]1CCCN1C(=O)[C@H](C)NC(=O)[C@H](CO)NC(=O)[C@H](CC(C)C)NC(=O)CNC(=O)[C@@H]1CCCN1C(=O)[C@H](CCC(N)=O)NC(=O)[C@H](CCC(N)=O)NC(=O)[C@H](CCCNC(=N)N)NC(=O)[C@H](CO)NC(=O)CNC(=O)[C@H](CO)NC(=O)[C@H](CO)NC(=O)[C@H](CCC(=O)O)NC(=O)[C@@H]1CCCN1C(=O)[C@@H]1CCCN1C(=O)[C@@H]1CCCN1C(=O)[C@H](CO)NC(=O)[C@H](CC(C)C)NC(=O)[C@H](CO)NC(=O)[C@@H](NC(=O)CN)[C@@H](C)O)C(=O)N1CCC[C@H]1C(=O)N[C@@H](C)C(=O)N1CCC[C@H]1C(=O)N[C@@H](CCC(N)=O)C(=O)NCC(=O)N[C@@H](C)C(=O)N[C@H](C(=O)N[C@@H](CC(C)C)C(=O)N[C@H](C(=O)N[C@@H](CCC(N)=O)C(=O)N[C@@H](CCCNC(=N)N)C(=O)N[C@@H](CCC(=O)O)C(=O)N[C@@H](CCCCN)C(=O)N[C@@H](CC(=O)O)C(=O)N[C@@H](CC(C)C)C(=O)N1CCC[C@H]1C(=O)N[C@@H](CC(N)=O)C(=O)N[C@@H](Cc1ccc(O)cc1)C(=O)N[C@@H](CC(N)=O)C(=O)N[C@@H](Cc1c[nH]c2ccccc12)C(=O)N[C@@H](CC(N)=O)C(=O)N[C@@H](CO)C(=O)N[C@@H](Cc1ccccc1)C(=O)NCC(=O)N[C@@H](CC(C)C)C(=O)N[C@@H](CCCNC(=N)N)C(=O)N[C@@H](Cc1ccccc1)C(N)=O)C(C)C)C(C)C` [1-54] as the molecule, how does the IC50 [2] read?
Its IC50 is 2.12e-07 M.

With `CNC(=N)NCCC[C@H](NC(=O)[C@H](CC(C)C)NC(=O)NNC(=O)[C@H](Cc1ccccc1)NC(=O)[C@H](CO)NC(=O)[C@H](CC(N)=O)NC(=O)[C@H](Cc1ccncc1)NC(=O)[C@@H](CC(N)=O)NC(=O)[C@H](N)Cc1ccc(O)cc1)C(=O)N[C@@H](Cc1ccccc1)C(N)=O` [Compound No. 303, D-Tyr-D-Asn-Pya(4)-Asn-Ser-Phe-AzaGly-Leu-Arg(Me)-Phe-NH2] (H-[dY][dN][4Pal]NSF[azaGly]L[Arg(Me)]F-NH2) as the molecule, how does the IC50 [2, 6] read?
The IC50 was 4.12e-08 M.

What about the “Specific Activity (intracellular Ca ion level-increasing activity)” value [4] of the same molecule?
The value was 5.

For `CNC(N)=NCCC[C@H](NC(=O)[C@H](CC(C)C)NC(=O)CNC(=O)[C@H](Cc1ccccc1)NC(=O)[C@H](CO)NC(=O)[C@H](CC(N)=O)NC(=O)[C@H](Cc1c[nH]c2ccccc12)NC(=O)[C@H](CC(N)=O)NC(=O)[C@@H](N)Cc1ccc(O)cc1)C(=O)N[C@@H](Cc1ccccc1)C(N)=O` [Compound No. 82], which half-life at 100 µM [1] is on record?
Its half-life at 100 µM is 1.8 min.

Which “Specific Activity (intracellular Ca ion level-increasing activity)” value [4] does the source give for `CC(C)C[C@H](NC(=O)CNC(=O)[C@H](Cc1ccccc1)NC(=O)[C@H](CO)NC(=O)[C@H](CC(N)=O)NC(=O)[C@H](Cc1c[nH]c2ccccc12)NC(=O)[C@H](CC(N)=O)NC(=O)[C@@H](N)Cc1ccc(O)cc1)C(=O)N[C@@H](CCCNC(=N)N)C(=O)N[C@@H](Cc1c[nH]c2ccccc12)C(N)=O` [Compound No. 134] (H-YNWNSFGLRW-NH2) here?
Its value is 30.

What about the IC50 [3] of the same molecule?
Its IC50 is 110 nM.

What about the half-life at 100 µM [1] of the same molecule?
Its half-life at 100 µM is 2.4 min.
